In patent US20100292185A1, “BETA-LACTAMASE INHIBITORS” (priority 2009, published 2010):
Where a name gives a salt, the structure may show the parent alone. Read-outs that look alike come from different tables or passages of the source.

Columns and labels:
SHV-5 β-lactamase = molecular target: T1, SHV-5 β-lactamase (Klebsiella pneumoniae, UniProt P0A3M1); assay: β-lactamase enzyme inhibition assay (nitrocefin substrate), SHV-5; assay type: biochemical
T1 construct: expressed as native untagged proteins; made in house; host or cells: E. coli BL21(DE3)
How it was run: (§1)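 Initial nitrocefin hydrolysis (100 µM final, A486 kinetic over 10 min) was measured after a 10-min, 37 °C preincubation of each purified untagged enzyme with compound at 100–0.005 µM in PBS pH 7.0. Percent inhibition relative to inhibitor-free wells gave the IC50. Enzymes were produced in E. coli BL21(DE3).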

CTX-M15 β-lactamase = molecular target: T2, CTX-M15 β-lactamase (Escherichia coli, UniProt Q9EXV5); assay: β-lactamase enzyme inhibition assay (nitrocefin substrate), CTXM-15; assay type: biochemical
T2 construct: expressed as native untagged proteins; made in house; host or cells: E. coli BL21(DE3)
How it was run: as §1

p99 AmpC β-lactamase = molecular target: T3, p99 AmpC β-lactamase (Enterobacter cloacae, UniProt P05364); assay: β-lactamase enzyme inhibition assay (nitrocefin substrate), P99 AmpC; assay type: biochemical
T3 construct: expressed as native untagged proteins; made in house; host or cells: E. coli BL21(DE3)
How it was run: as §1

KPC-2 β-lactamase = molecular target: T4, KPC-2 β-lactamase (Klebsiella pneumoniae, UniProt Q9F663); assay: β-lactamase enzyme inhibition assay (nitrocefin substrate), KPC-2; assay type: biochemical
T4 construct: expressed as native untagged proteins; made in house; host or cells: E. coli BL21(DE3)
How it was run: as §1

[1] = molecular target: T5, VIM-2 metallo β-lactamase (Pseudomonas aeruginosa, UniProt Q9K2N0); assay: β-lactamase enzyme inhibition assay (nitrocefin substrate), VIM-2; assay type: biochemical; conditions: nitrocefin 100 μM, 37° C., PBS pH 7.0; read-out: VIM-2 IC50
T5 construct: made in house
Protocol: Isolation of β-lactamases. For SHV-5, p99 AmpC, KPC-2 and CTX-M15 β-lactamases, E. coli BL21(DE3) bacterial cells carrying expression plasmids (expressed as native untagged proteins) for the individual β-lactamases were grown in 1 L of Superbroth (Teknova Inc. Hollister, Calif.) supplemented with 100 μg/ml kanamycin and 1×5052 (0.5% glycerol, 0.05% glucose and 0.2% α-lactose) at 35° C. for 18-20 hours. Cells were harvested by centrifugation (4,000×g, 4° C., 20 min), and resuspended in 50 ml of 10 mM HEPES pH 7.5 (1/20 of the initial volume). The cells were lysed by sonication (5 pulses of 45 seconds) at 45 W on ice. The lysates were clarified by centrifugation at 10,000×g for 40 minutes at 4° C. Samples were diluted 5-fold in 50 mM sodium acetate pH 5.0, stored overnight at 4° C., after which they were centrifuged at 10,000×g for 30 minutes to clarify, and filtered through 0.45 μm filters. The samples were loaded onto a 5 ml Capto S sepharose cation exchange column (GE Healthcare) pre-equilibrated with 50 mM sodium acetate pH 5.0. The column was washed with 5 column volumes of 50 mM sodium acetate pH 5.0 to wash out unbound protein and a linear gradient of NaCl (0 to 500 mM) was used to elute the protein (over 16 CV) from the column. Fractions were assayed for β-lactamase activity using Centa (Calbiochem, Gibbstown, N.J.) as a reporter β-lactamase substrate for activity in the isolated fractions. Active fractions were pooled, concentrated and further purified by gel filtration chromatography on a Superdex 75 prep grade gel filtration column (GE Healthcare, Piscataway, N.J.) pre-equilibrated in 50 mM Hepes pH 7.5, 150 mM NaCl. Active fractions were pooled concentrated, quantitated by BCA protein determination (Thermo Scientific, Rockford, Ill.), and frozen at −80° C. in 20% glycerol until use.
For VIM-2 metallo (β-lactamase, the procedure was identical with the following exceptions: 1) the protein was not pH adjusted to pH 5 with 50 mM sodium acetate, 2) the chromatography step was changed to a 5 ml Q sepharose anion exchange column pre-equilibrated with 50 mM Hepes pH 7.5, and 3) elution of the protein was achieved by a linear gradient of NaCl (0-600 mM). Finally, the VIM-2 purification required a second run (3rd step) on the Q sepharose anion exchange column to achieve acceptable purity (>90%).
(§2) β-lactamase Inhibition. To determine the level of inhibition of β-lactamase enzymes, compounds were diluted in PBS at pH 7.0 to yield concentrations between 100 and 0.005 μM in microtiter plates. An equal volume of diluted enzyme stock was added, and the plates were incubated at 37° C. for 10 min. Nitrocefin solution was then dispensed as substrate into each well at a final concentration of 100 μM, and the plates were immediately read with the kinetic program at 486 nm for 10 min on the SPECTRAMAX® Plus^384 (high-throughput microplate spectrophotometer; Molecular Devices Corp., Sunnyvale, Calif.). Maximum rates of metabolism were then compared to those in control wells (without inhibitors), and percentages of enzyme inhibition were calculated for each concentration of inhibitor. The concentration of inhibitor needed to reduce the initial rate of hydrolysis of substrate by 50% (IC50) was calculated as the residual activity of β-lactamase at 486 nm using the SoftMax Pro 5.0 software (Molecular Devices Corp.).
Using the methodology described above, examples of the current invention were evaluated for their ability to inhibit β-lactamase enzymes. The results of these assays are summarized in Table 2 for representative enzymes across different subtypes (note SHV-5 and CTXM-15 exemplify different subclasses of Ambler Class A Extended Spectrum Beta Lactamases, KPC-2 exemplifies Class A carbapenemases, P99 represents chromosomal Class C AmpC, VIM-2 exemplifies subclass B1 of metallo-β-lactamases, and OXA-23 represents chromosome-encoded Class D oxacillin-hydrolyzing β-lactamases), NT=not tested.

OXA-23 β-lactamase = molecular target: T6, OXA-23 β-lactamase (Acinetobacter baumannii, UniProt Q9L4P2); assay: β-lactamase enzyme inhibition assay (nitrocefin substrate), OXA-23 crude extract; assay type: biochemical; conditions: nitrocefin 100 μM, 37° C., PBS pH 7.0; read-out: OXA-23 IC50
T6 construct: crude β-lactamase extracts were prepared from 20 ml overnight cultures; endogenous in cells; host or cells: Acinetobacter baumannii cells containing OXA-23 (crude freeze-thaw extract)
Protocol: For OXA-23 β-lactamase, crude β-lactamase extracts were prepared from 20 ml overnight cultures with shaking. Acenitobacter baumanni cells containing OXA-23 were further diluted 10-fold and grown to mid-log phase (OD at 600 nm, 0.5-0.8) in Mueller-Hinton II (MH-II) broth at 37° C. The cells were pelleted at 5000 g, washed and resuspended in 2 mL PBS pH 7.0. The β-lactamases were extracted by four cycles of freezing and thawing followed by centrifugation. β-lactamase activity in the extracts was measured with the chromogenic cephalosporin nitrocefin. The amount of protein in each β-lactamase preparation was determined by the bicinchoninic acid (BCA) assay.
as §2

[2] = system: E. coli expressing the Class A ESBL SHV-5; assay: In vitro antibacterial assay of β-lactamase inhibition (broth microdilution MIC), E. coli SHV-5; assay type: cell-based
How it was run: (§3)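 Broth microdilution in cation-adjusted Mueller Hinton broth; strains pre-grown 3–5 h with 50 μg/mL ampicillin. Test compounds 2-fold serially diluted to a final 8–0.015 μg/mL alongside a β-lactam, CLSI inoculum. MIC read visually after 16–20 h at 37° C.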

[3] = system: K. pneumoniae expressing the Class A Extended Spectrum Beta-Lactamase (ESBL) CTX-M-15; assay: In vitro antibacterial assay of β-lactamase inhibition (broth microdilution MIC), K. pneumoniae CTX-M-15; assay type: cell-based
How it was run: as §3

[4] = system: E. cloacae expressing the Class C P99+; assay: In vitro antibacterial assay of β-lactamase inhibition (broth microdilution MIC), E. cloacae P99+; assay type: cell-based
How it was run: as §3

[5] = system: K. pneumoniae expressing the Class A carbapenemase KPC-2; assay: microbe, parasite or virus in culture; assay type: cell-based
How it was run: as §3

[6] = system: P. aeruginosa expressing the Class B metallo β-lactamase VIM-2; assay: In vitro antibacterial assay of β-lactamase inhibition (broth microdilution MIC), P. aeruginosa VIM-2; assay type: cell-based; conditions: in presence of Ceftazidime 16 μg/mL (Examples 1-56)
How it was run: as §3

[7] = nitrocefin 100 μM, 37° C., PBS pH 7.0, read-out: P99 AmpC IC50
[8] = in presence of Ceftazidime 8 μg/ml (Examples 1-56)
[9] = in presence of Piperacillin 16 μg/ml (Examples 57-65)

T4 sequence (Q9F663 25-293 limits assumed): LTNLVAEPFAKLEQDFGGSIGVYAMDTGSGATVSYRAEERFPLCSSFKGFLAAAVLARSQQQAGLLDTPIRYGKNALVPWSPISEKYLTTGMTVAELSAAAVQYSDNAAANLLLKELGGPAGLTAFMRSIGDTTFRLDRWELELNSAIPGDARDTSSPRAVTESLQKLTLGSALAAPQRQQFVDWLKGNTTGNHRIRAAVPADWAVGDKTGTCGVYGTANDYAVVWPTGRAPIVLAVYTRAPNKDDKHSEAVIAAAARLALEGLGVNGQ
T2 sequence (Q9EXV5 entry or part of it): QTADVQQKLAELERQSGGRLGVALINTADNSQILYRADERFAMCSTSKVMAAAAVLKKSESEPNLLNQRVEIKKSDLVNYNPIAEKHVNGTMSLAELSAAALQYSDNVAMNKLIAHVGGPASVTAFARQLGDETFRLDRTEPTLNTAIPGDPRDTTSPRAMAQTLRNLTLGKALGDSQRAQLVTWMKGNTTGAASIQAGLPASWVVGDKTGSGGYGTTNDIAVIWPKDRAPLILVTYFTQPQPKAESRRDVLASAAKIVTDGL
T1 sequence (P0A3M1 22-286): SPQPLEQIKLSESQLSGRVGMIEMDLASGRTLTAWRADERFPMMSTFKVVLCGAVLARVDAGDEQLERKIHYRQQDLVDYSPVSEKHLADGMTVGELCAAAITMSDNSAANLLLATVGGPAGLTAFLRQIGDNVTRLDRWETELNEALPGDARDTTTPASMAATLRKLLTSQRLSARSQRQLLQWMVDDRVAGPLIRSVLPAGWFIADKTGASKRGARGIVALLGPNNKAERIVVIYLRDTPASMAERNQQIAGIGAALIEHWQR
T6 sequence (Q9L4P2 18-273): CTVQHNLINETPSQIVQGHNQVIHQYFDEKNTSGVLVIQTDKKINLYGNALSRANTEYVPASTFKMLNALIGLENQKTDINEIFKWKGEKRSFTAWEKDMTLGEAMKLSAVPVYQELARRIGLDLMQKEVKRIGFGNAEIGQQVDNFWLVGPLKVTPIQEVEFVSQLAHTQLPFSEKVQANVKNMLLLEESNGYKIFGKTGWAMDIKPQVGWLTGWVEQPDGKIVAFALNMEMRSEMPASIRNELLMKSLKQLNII
T3 sequence (P05364 21-381): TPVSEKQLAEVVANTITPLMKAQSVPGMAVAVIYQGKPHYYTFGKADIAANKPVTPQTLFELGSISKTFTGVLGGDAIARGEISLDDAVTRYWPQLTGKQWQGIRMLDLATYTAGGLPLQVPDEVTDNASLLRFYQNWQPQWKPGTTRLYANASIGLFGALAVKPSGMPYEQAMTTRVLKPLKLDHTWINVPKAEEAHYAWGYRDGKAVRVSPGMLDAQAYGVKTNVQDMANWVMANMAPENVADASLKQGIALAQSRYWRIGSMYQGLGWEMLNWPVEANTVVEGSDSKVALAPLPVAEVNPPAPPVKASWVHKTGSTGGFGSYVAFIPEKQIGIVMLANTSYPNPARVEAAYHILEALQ

Row | Compound | IC50 (SHV-5 β-lactamase; nitrocefin 100 μM, 37° C., PBS pH 7.0, read-out: SHV-5 IC50) | IC50 (CTX-M15 β-lactamase; nitrocefin 100 μM, 37° C., PBS pH 7.0, read-out: CTXM-15 IC50) | IC50 (p99 AmpC β-lactamase; [7]) | IC50 (KPC-2 β-lactamase; nitrocefin 100 μM, 37° C., PBS pH 7.0, read-out: KPC-2 IC50) | IC50 [1] | IC50 (OXA-23 β-lactamase) | MIC of example compound, E. coli SHV-5 [2, 8] | MIC of example compound, K. pneumoniae CTX-M-15 [3, 8] | MIC of example compound, E. cloacae P99+ [4, 8] | MIC of example compound, K. pneumoniae KPC-2 [5, 8] | MIC of example compound, P. aeruginosa VIM-2 [6] | IC50 (SHV-5 β-lactamase) | IC50 (CTX-M15 β-lactamase) | IC50 (KPC-2 β-lactamase) | IC50 (p99 AmpC β-lactamase) | MIC of example compound, E. coli SHV-5 [2, 9] | MIC of example compound, K. pneumoniae CTX-M-15 [3, 9] | MIC of example compound, E. cloacae P99+ [4, 9] | MIC of example compound, K. pneumoniae KPC-2 [5, 9]
1 | (1R)-[3-{(2-hydroxy-ethylamino)-methyl}-benzoylamino]-(3-carboxy-2-hydroxy)benzyl-methylboronic acid formate [Example 43] | 4 nM | 12 nM | 9 nM | 70 nM | 184 nM | 38 nM | 2 µg/mL | 0.5 µg/mL | 0.5 µg/mL | <0.015 µg/mL | >8 µg/mL | – | – | – | – | – | – | – | –
2 | Cl.Nc1cc(C(=O)N[C@@H](Cc2cccc(C(=O)O)c2O)B(O)O)ccn1 [Example 8, (2R)-3-{2-[(2-Amino-pyridine-4-carbonyl)-amino]-2-borono-ethyl}-2-hydroxy-benzoic acid] | – | – | 2 nM | – | 700 nM | 144 nM | 1 µg/mL | 0.5 µg/mL | 0.5 µg/mL | 0.06 µg/mL | – | 29 nM | 28 nM | 5 nM | – | – | – | – | –
3 | O=C(N[C@@H](Cc1cccc(C(=O)O)c1O)B(O)O)c1ccc(CN2CCNCC2)cc1 [Example 5, 2(R)-3-[2-(4-(1-piperazinylmethyl)benzoylamino)-2-borono-ethyl]-2-hydroxy-benzoic acid Hydrochloride] | – | – | – | – | 510 nM | > 1000 nM | 4 µg/mL | 1 µg/mL | 2 µg/mL | 0.03 µg/mL | – | > 1000 nM | 6 nM | 1 nM | 1 nM | – | – | – | –
4 | N=C(N)NCc1cc(CC(=O)N[C@@H](Cc2cccc(C(=O)O)c2O)B(O)O)ccn1 [Example 64, (2R)-3-{2-[(2-Guanidinomethyl-pyridin-4-yl-acetyl)-amino]-2-borono-ethyl}-2-hydroxy-benzoic acid formate] | – | – | – | – | 548 nM | 177 nM | – | – | – | – | – | 3 nM | 3 nM | 17 nM | 8 nM | 0.125 µg/mL | >16 µg/mL | 4 µg/mL | 0.125 µg/mL
5 | Cl.Nc1ccc(C(=O)N[C@@H](Cc2cccc(C(=O)O)c2O)B(O)O)cn1 [Example 7, (2R)-3-{2-[(2-Amino-pyridine-5-carbonyl)-amino]-2-borono-ethyl}-2-hydroxy-benzoic acid formate salt] | – | – | 1 nM | – | 820 nM | 508 nM | 1 µg/mL | 0.12 µg/mL | 0.12 µg/mL | 0.03 µg/mL | – | 320 nM | 1 nM | 4 nM | – | – | – | – | –
6 | Nc1cccc[n+]1Cc1ccc(CC(=O)N[C@@H](Cc2cccc(C(=O)O)c2O)B(O)O)cc1 [Example 40, (1R)-2-amino-(4-{[2-(3-carboxy-2-hydroxy-phenyl-borono-ethylcarbamoyl]-methyl}-benzyl)-pyridinium formate] | – | – | 10 nM | – | > 1000 nM | 132 nM | 0.25 µg/mL | 0.25 µg/mL | 2 µg/mL | – | >8 µg/mL | 20 nM | 4 nM | 653 nM | – | – | – | – | –
